Measurements reported in patent US10800782B2, “Inhibitors of cellular metabolic processes” (Agios Pharmaceuticals, Inc., priority 2016, dated 2020).
pIC50: −log10 of the molar value.

molecular target: T1, MAT2A (Homo sapiens, UniProt P31153); assay: MAT2A biochemical assay (colorimetric inorganic phosphate detection, PiColorLock); conditions: recombinant His6-tagged MAT2A 1 μg/ml; 60 minutes preincubation at 25° C.; L-Met 80 μM, ATP 100 μM; 60 minutes reaction; read at 623 nm; read-out: MAT2A Inhibition Score
T1 construct: His6; made in house; host or cells: SF9 insect cells
Method: In the reaction catalyzed by MAT2A enzyme, L-Met and ATP were converted to SAM, inorganic phosphate, and inorganic diphosphate. […] The concentration of malachite green phosphomolybdate produced in the detection reaction is thus directly related to the quantity of product produced by the MAT2A enzyme. Multiple commercial kits exist for this method of phosphate detection and quantification, such as PiColorLock Gold (Innova Biosciences). Typical reaction was performed in 50 μl final volume, containing buffer (Tris, pH 8.0, 50 mM KCl, 15 mM MgCl2, 300 uM EDTA, bovine serum albumin at 0.005% w/v) and 1 μg/ml MAT2A. Compounds were added in 1 μl of DMSO at the desired concentration; a typical dose response curve contained ten points with three-fold dilution between compound concentrations. […] The reaction was allowed to proceed for 60 minutes at room temperature then halted by the addition of 13 μl of PiColor Lock reagent. After a further 5 minutes of incubation at room temperature, […] of PiColor Stabilizer was added and the reactions were further incubated at 25° C. for 25 minutes. […] Recombinant MAT2A protein was expressed in SF9 insect cells and purified by metal chelate affinity chromatography, using methods well known in the art. After expression of His6-tagged MAT2A cells were disrupted by 4 passes through an M-Yl 10 Micro fluidizer (Microfluidics) set to 500 psi, and then centrifuged at 22,000 rcf for 20 min at 4° C. The supernatant was harvested and loaded at 15 cm/h on a Histrap FF 5*1 ml column (GE) which was equilibrated with 50 mM Tris, 500 mM NaCl, pH7.4. Host cell contaminants were removed by washing the column with equilibration buffer followed by equilibration buffer containing 20 mM imidazole and 60 mM imidazole to baseline. MAT2A protein was eluted by the addition of buffer containing 250 mM imidazole, dialized into 50 mM NaCl, 50 mM Tris, pH 7.4, flash frozen in liquid nitrogen, and stored at −80° C. until use.

T1 sequence (P31153 whole entry): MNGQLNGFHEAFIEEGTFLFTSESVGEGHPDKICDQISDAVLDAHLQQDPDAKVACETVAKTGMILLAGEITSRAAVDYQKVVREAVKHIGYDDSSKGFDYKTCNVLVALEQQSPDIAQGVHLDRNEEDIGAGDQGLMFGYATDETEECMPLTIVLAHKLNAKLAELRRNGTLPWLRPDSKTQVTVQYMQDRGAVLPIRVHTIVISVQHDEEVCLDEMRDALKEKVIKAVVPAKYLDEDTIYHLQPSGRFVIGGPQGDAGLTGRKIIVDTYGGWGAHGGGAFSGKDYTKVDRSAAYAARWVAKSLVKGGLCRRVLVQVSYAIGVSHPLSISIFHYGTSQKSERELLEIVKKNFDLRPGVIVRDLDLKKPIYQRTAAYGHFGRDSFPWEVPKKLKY

Row | Structure (SMILES) | pIC50
1 | O=c1c(-c2ccc3c(c2)OCCO3)c(CO)[nH]c2c(C3=CCCCC3)c(-c3ccccc3)nn12 [Compound 225, 3-(cyclohex-1-en-1-yl)-6-(2,3-dihydrobenzo[b][1,4]dioxin-6-yl)-5-(hydroxymethyl)-2-phenylpyrazolo[1,5-a]pyrimidin-7(4H)-one] | > 7.00
2 | COc1ccc(-c2c(Nc3cnc(C#N)cn3)[nH]c3c(C4=CCCCC4)c(-c4ccccc4)nn3c2=O)cc1 [Compound 159, 5-(3-cyclohexenyl-6-(4-methoxyphenyl)-7-oxo-2-phenyl-4,7-dihydropyrazolo[1,5-a]pyrimidin-5-ylamino)pyrazine-2-carbonitrile] | > 7.00
3 | Cn1c(CO)c(-c2ccc3ncccc3c2)c(=O)n2nc(-c3ccccc3)c(-c3ccccc3)c12 [Compound 281, 5-(hydroxymethyl)-4-methyl-2,3-diphenyl-6-(quinolin-6-yl)pyrazolo[1,5-a]pyrimidin-7(4H)-one] | > 7.00
4 | CC(=O)Nc1ccc(-c2c(C)[nH]c3c(N4CCCCC4)c(-c4ccccc4)nn3c2=O)cc1 [Compound 308, N-(4-(5-methyl-7-oxo-2-phenyl-3-(piperidin-1-yl)-4,7-dihydropyrazolo[1,5-a]pyrimidin-6-yl)phenyl)acetamide] | 5.00 to 6.00
5 | COc1ccc(-c2c(Nc3ncncn3)[nH]c3c(-c4ccccc4)c(-c4ccccc4)nn3c2=O)cc1 [Compound 132, 5-((1,3,5-triazin-2-yl)amino)-6-(4-methoxyphenyl)-2,3-diphenylpyrazolo[1,5-a]pyrimidin-7(4H)-one] | > 7.00
6 | Cc1[nH]c2c(-c3ccccc3)c(-c3ccccc3)nn2c(=O)c1-c1ccc(O)cc1 [Compound 237, 6-(4-hydroxyphenyl)-5-methyl-2,3-diphenylpyrazolo[1,5-a]pyrimidin-7(4H)-one] | > 7.00
7 | O=c1c(-c2ccc3ncccc3c2)c(Nc2ccon2)[nH]c2c(-c3ccccc3)c(-c3ccccc3)nn12 [Compound 170, 5-(isoxazol-3-ylamino)-2,3-diphenyl-6-(quinolin-6-yl)pyrazolo[1,5-a]pyrimidin-7(4H)-one] | > 7.00
8 | O=C(NCCO)c1[nH]c2c(-c3ccccc3)c(-c3ccccc3)nn2c(=O)c1-c1ccc2ncccc2c1 [Compound 329, N-(2-hydroxyethyl)-7-oxo-2,3-diphenyl-6-(quinolin-6-yl)-4,7-dihydropyrazolo[1,5-a]pyrimidine-5-carboxamide] | 6.00 to 7.00
9 | COc1ccc(-c2c(C)[nH]c3c(N4CCC(F)(F)CC4)c(-c4ccccc4)nn3c2=O)cc1 [Compound 213, 3-(4,4-difluoropiperidin-1-yl)-6-(4-methoxyphenyl)-5-methyl-2-phenylpyrazolo[1,5-a]pyrimidin-7(4H)-one] | > 7.00
10 | Cc1[nH]c2c(N3CCCCC3)c(-c3ccccc3)nn2c(=O)c1-c1ccc2[nH]cnc2c1 [Compound 267, 6-(1H-benzo[d]imidazol-5-yl)-5-methyl-2-phenyl-3-(piperidin-1-yl)pyrazolo[1,5-a]pyrimidin-7(4H)-one] | > 7.00
11 | Cc1[nH]c2c(-c3ccccc3)c(-c3ccccc3)nn2c(=O)c1-c1ccc2c(c1)NCCO2 [Compound 258, 6-(3,4-dihydro-2H-benzo[b][1,4]oxazin-6-yl)-5-methyl-2,3-diphenylpyrazolo[1,5-a]pyrimidin-7(4H)-one] | > 7.00
12 | COc1ccc(-c2c(Nc3ncc(C#N)cn3)[nH]c3c(-c4ccccc4)c(-c4ccccc4)nn3c2=O)cc1 [Compound 115, 2-(6-(4-methoxyphenyl)-7-oxo-2,3-diphenyl-4,7-dihydropyrazolo[1,5-a]pyrimidin-5-ylamino)pyrimidine-5-carbonitrile] | > 7.00
13 | Cc1[nH]c2c(-c3ccccc3)c(-c3cc[nH]c3)nn2c(=O)c1-c1ccc2ncccc2c1 [Compound 252, 5-methyl-3-phenyl-2-(1H-pyrrol-3-yl)-6-(quinolin-6-yl)pyrazolo[1,5-a]pyrimidin-7(4H)-one] | > 7.00
14 | COc1ccc(-c2c(Cn3ncnn3)[nH]c3c(-c4ccccc4)c(-c4ccccc4)nn3c2=O)cc1 [Compound 339, 5-((2H-tetrazol-2-yl)methyl)-6-(4-methoxyphenyl)-2,3-diphenylpyrazolo[1,5-a]pyrimidin-7(4H)-one] | 6.00 to 7.00
15 | COc1cnc2ccc(-c3c(C)[nH]c4c(-c5ccccc5)c(-c5ccccc5)nn4c3=O)cc2n1 [Compound 254, 6-(3-methoxy-quinoxalin-6-yl)-5-methyl-2,3-diphenylpyrazolo[1,5-a]-pyrimidin-7(4H)-one] | > 7.00
16 | Cc1[nH]c2c(C3=CC(O)CCC3)c(-c3ccccc3)nn2c(=O)c1-c1ccc2ncccc2c1 (stereo not shown) [Compound 282] | > 7.00
17 | COc1ccc(-c2c(Nc3ccon3)[nH]c3c(C4=CCCCC4)c(-c4ccccc4)nn3c2=O)cc1 [Compound 165, 3-(cyclohex-1-en-1-yl)-5-(isoxazol-3-ylamino)-6-(4-methoxyphenyl)-2-phenylpyrazolo[1,5-a]pyrimidin-7(4H)-one] | > 7.00
18 | Cc1[nH]c2c(N3CCC(F)(F)C3)c(-c3ccccc3)nn2c(=O)c1-c1ccc2ncccc2c1 [Compound 316, 3-(3,3-difluoropyrrolidin-1-yl)-5-methyl-2-phenyl-6-(quinolin-6-yl)pyrazolo[1,5-a]pyrimidin-7(4H)-one] | 6.00 to 7.00
19 | Cc1[nH]c2c(-c3ccccc3)c(-c3ccccc3)nn2c(=O)c1-c1ccc2nnccc2c1 [Compound 335, 6-(cinnolin-6-yl)-5-methyl-2,3-diphenylpyrazolo[1,5-a]pyrimidin-7(4H)-one] | 6.00 to 7.00
20 | NCc1[nH]c2c(C3=CCCCC3)c(-c3ccccc3)nn2c(=O)c1-c1ccc(O)cc1 [Compound 241, 5-(aminomethyl)-3-(cyclohex-1-en-1-yl)-6-(4-hydroxyphenyl)-2-phenylpyrazolo[1,5-a]pyrimidin-7(4H)-one] | > 7.00
21 | Cc1[nH]c2c(N3CCCCC3)c(-c3ccccc3)nn2c(=O)c1C1CCCC1 [Compound 300, 6-cyclopentyl-5-methyl-2-phenyl-3-(piperidin-1-yl)pyrazolo[1,5-a]pyrimidin-7(4H)-one] | 6.00 to 7.00

The next lines start with the values.

Row | pIC50 | Structure (SMILES)
22 | > 7.00 | Cc1cc(Nc2[nH]c3c(-c4ccccc4)c(-c4ccccc4)nn3c(=O)c2-c2ccc3ncccc3c2)n[nH]1 [Compound 188, 5-((5-methyl-1H-pyrazol-3-yl)amino)-2,3-diphenyl-6-(quinolin-6-yl)pyrazolo[1,5-a]pyrimidin-7(4H)-one]
23 | > 7.00 | COc1ccc(-c2c(Nc3cn[nH]n3)[nH]c3c(-c4ccccc4)c(-c4ccccc4)nn3c2=O)cc1 [Compound 185, 5-((2H-1,2,3-triazol-4-yl)amino)-6-(4-methoxyphenyl)-2,3-diphenylpyrazolo[1,5-a]pyrimidin-7(4H)-one]
24 | > 7.00 | Cc1[nH]c2c(N3CCCCC3)c(-c3ccccc3)nn2c(=O)c1-c1ccc2nccnc2c1 [Compound 255, 5-methyl-2-phenyl-3-(piperidin-1-yl)-6-(quinoxalin-6-yl)pyrazolo[1,5-a]pyrimidin-7(4H)-one]
25 | > 7.00 | Cc1[nH]c2c(N3CCCCC3)c(-c3ccccc3)nn2c(=O)c1-c1ccc2[nH]c(N)nc2c1 [Compound 268, 6-(2-amino-1H-benzo[d]imidazol-5-yl)-5-methyl-2-phenyl-3-(piperidin-1-yl)pyrazolo[1,5-a]pyrimidin-7(4H)-one]
26 | > 7.00 | COc1ccc(-c2c(Nc3ncns3)[nH]c3c(-c4ccccc4)c(-c4ccccc4)nn3c2=O)cc1 [Compound 147, 5-((1,2,4-thiadiazol-5-yl)amino)-6-(4-methoxyphenyl)-2,3-diphenylpyrazolo[1,5-a]pyrimidin-7(4H)-one]
27 | > 7.00 | COc1ccc(-c2c(C)[nH]c3c(-c4ccccc4)c(-c4ccccc4)nn3c2=O)cc1 [Compound 209, 6-(4-methoxyphenyl)-5-methyl-2,3-diphenylpyrazolo[1,5-a]pyrimidin-7(4H)-one]
28 | > 7.00 | O=c1c(-c2ccc3ncccc3c2)c(Nc2ccccn2)[nH]c2c(C3=CCCCC3)c(-c3ccccc3)nn12 [Compound 174, 3-cyclohexenyl-2-phenyl-5-(pyridin-2-ylamino)-6-(quinolin-6-yl)pyrazolo[1,5-a]pyrimidin-7(4H)-one]
29 | > 7.00 | Cc1[nH]c2c(-c3ccccc3)c(-c3ccccc3)nn2c(=O)c1-c1ccc(O)c(OCCO)c1 [Compound 261, 6-(4-hydroxy-3-(2-hydroxyethoxy)phenyl)-5-methyl-2,3-diphenylpyrazolo[1,5-a]pyrimidin-7(4H)-one]
30 | > 7.00 | COc1ccc(-c2c(Nc3ncc(Cl)cn3)[nH]c3c(-c4ccccc4)c(-c4ccccc4)nn3c2=O)cc1 [Compound 122, 5-((5-chloropyrimidin-2-yl)amino)-6-(4-methoxyphenyl)-2,3-diphenylpyrazolo[1,5-a]pyrimidin-7(4H)-one]
31 | > 7.00 | COc1ccc(-c2c(CO)[nH]c3c(-c4ccccc4)c(-c4ccccc4)nn3c2=O)cc1 [Compound 221, 5-(hydroxymethyl)-6-(4-methoxyphenyl)-2,3-diphenylpyrazolo[1,5-a]pyrimidin-7(4H)-one]
